Results as given in US20240148821A1, “PHARMACEUTICAL USE OF CYCLIC PEPTIDE COMPOUND” (CHUGAI SEIYAKU KABUSHIKI KAISHA, priority 2021, published 2024).
Bridge positions count the residues as written; N and C are the ends. Square brackets hold non-standard residues; d marks the D form. Peptide text beside a SMILES is read from it. * marks the point of attachment. hPhe(3-Cl-4-CF3) = N[C@@H](CCc1ccc(C(F)(F)F)c(Cl)c1)C(=O)O; NMePhe(4-Me) = CN[C@@H](Cc1ccc(C)cc1)C(=O)O; NMePhe(4-F) = CN[C@@H](Cc1ccc(F)cc1)C(=O)O; NMeNva(5,5-F2) = CN[C@@H](CCC(F)F)C(=O)O; NMeGly(cPent) = CN[C@H](C(=O)O)C1CCCC1; NMeCha = CN[C@@H](CC1CCCCC1)C(=O)O; NMeGly(cPr) = CN[C@H](C(=O)O)C1CC1; NMeChg = CN[C@H](C(=O)O)C1CCCCC1; NMeI = CC[C@H](C)[C@H](NC)C(=O)O; NMeD = CN[C@@H](CC(=O)O)C(=O)O; NMeL = CN[C@@H](CC(C)C)C(=O)O; hLeu = CC(C)CC[C@H](N)C(=O)O; NMeV = CN[C@H](C(=O)O)C(C)C; d(β3hA) = C[C@@H](N)CC(=O)O; NMeS = CN[C@@H](CO)C(=O)O; Ac6c = NC1(C(=O)O)CCCCC1; NMeA = CN[C@@H](C)C(=O)O; Piperidide = C1CCN(*)CC1; Pyrrolidide = C1CCN(*)C1; Ac5c = NC1(C(=O)O)CCCC1; Sar = CNCC(=O)O

System: Human pancreatic cancer cell line AsPC-1 (G12D mutation Kras)
Test: AsPC-1 cell growth inhibition (AsPC-1 CGI)
Format: cell-based
Conditions: read-out: AsPC-1 cell growth inhibition, 50% growth inhibitory concentration (IC50 value); 96 hours, CellTiter-Glo, values classified in ranges
Procedure: Test compounds were serially dilated with dimethyl sulfoxide, and 200 nL was then dispensed to a U-bottom 96-well plate using Labcyte Echo. […] The cell suspension was dispensed to a. plate containing a test compound at 100 μL per well and incubated at 37° C. in a 5% carbon dioxide gas incubator. 96 hours later, 80 μL of CellTiter-Glo (Promega) was added to each well and fluorescence was measured.

Structure (SMILES)	IC50
CC[C@H](C)[C@@H]1NC(=O)[C@H](CC(C)C)N(C)C(=O)C[C@@H](C(=O)N2CCCCC2)N(C)C(=O)[C@H](C2CCCCC2)N(C)C(=O)C2(CCCCC2)NC(=O)[C@@H]2CCCN2C(=O)[C@H](CCc2ccc(C(F)(F)F)c(Cl)c2)NC(=O)CN(C)C(=O)[C@H](CC2CCCCC2)N(C)C(=O)CN(C)C(=O)CN(C)C1=O [Compound 1644] ([NMeL]I[Sar][Sar][NMeCha][Sar][hPhe(3-Cl-4-CF3)]P[Ac6c][NMeChg][NMeD]-Piperidide; lactam N-11)	> 500 nM
CC[C@H](C)[C@@H]1NC(=O)[C@H](CC(C)C)N(C)C(=O)C[C@@H](C(=O)N2CCCCC2)N(C)C(=O)[C@H](C2CCCCC2)N(C)C(=O)C2(CCCC2)NC(=O)[C@@H]2CCCN2C(=O)[C@H](CCc2ccc(C(F)(F)F)c(Cl)c2)NC(=O)CN(C)C(=O)[C@H](CCC(F)F)N(C)C(=O)CN(C)C(=O)CN(C)C1=O [Compound 1647] ([NMeL]I[Sar][Sar][NMeNva(5,5-F2)][Sar][hPhe(3-Cl-4-CF3)]P[Ac5c][NMeChg][NMeD]-Piperidide; lactam N-11)	> 500 nM
CC[C@H](C)[C@@H]1NC(=O)[C@H](CC(C)C)N(C)C(=O)C[C@@H](C(=O)N2CCCCC2)N(C)C(=O)[C@H]([C@@H](C)CC)N(C)C(=O)C2(CCCC2)NC(=O)[C@@H]2CCCN2C(=O)[C@H](CCc2ccc(C(F)(F)F)c(Cl)c2)NC(=O)CN(C)C(=O)[C@H](Cc2ccc(C)cc2)N(C)C(=O)CN(C)C(=O)CN(C)C1=O [Compound 1649] ([NMeL]I[Sar][Sar][NMePhe(4-Me)][Sar][hPhe(3-Cl-4-CF3)]P[Ac5c][NMeI][NMeD]-Piperidide; lactam N-11)	≤ 20 nM
CC(C)CC[C@@H]1NC(=O)[C@H](CC(C)C)N(C)C(=O)C[C@@H](C(=O)N2CCCCC2)N(C)C(=O)[C@H](C2CCCCC2)N(C)C(=O)C2(CCCC2)NC(=O)[C@@H]2CCCN2C(=O)[C@H](CCc2ccc(C(F)(F)F)c(Cl)c2)NC(=O)CN(C)C(=O)[C@H](CC2CCCCC2)N(C)C(=O)CN(C)C(=O)CN(C)C1=O [Compound 1651] ([NMeL][hLeu][Sar][Sar][NMeCha][Sar][hPhe(3-Cl-4-CF3)]P[Ac5c][NMeChg][NMeD]-Piperidide; lactam N-11)	> 500 nM
CC[C@H](C)[C@@H]1NC(=O)[C@H](CC(C)C)N(C)C(=O)C[C@@H](C(=O)N(C)C)N(C)C(=O)[C@H](C2CCCC2)N(C)C(=O)C2(CCCC2)NC(=O)[C@@H]2CCCN2C(=O)[C@H](CCc2ccc(C(F)(F)F)c(Cl)c2)NC(=O)CN(C)C(=O)[C@H](CC2CCCCC2)N(C)C(=O)CN(C)C(=O)CN(C)C1=O [Compound 1659] ([NMeL]I[Sar][Sar][NMeCha][Sar][hPhe(3-Cl-4-CF3)]P[Ac5c][NMeGly(cPent)][NMeD]-NMe2; lactam N-11)	≤ 20 nM
CC[C@H](C)[C@@H]1NC(=O)[C@H](CC(C)C)N(C)C(=O)C[C@@H](C(=O)N2CCCC2)N(C)C(=O)[C@H]([C@@H](C)CC)N(C)C(=O)C2(CCCC2)NC(=O)[C@@H]2CCCN2C(=O)[C@H](CCc2ccc(C(F)(F)F)c(Cl)c2)NC(=O)CN(C)C(=O)[C@H](CC2CCCCC2)N(C)C(=O)CN(C)C(=O)CN(C)C1=O [Compound 1662] ([NMeL]I[Sar][Sar][NMeCha][Sar][hPhe(3-Cl-4-CF3)]P[Ac5c][NMeI][NMeD]-Pyrrolidide; lactam N-11)	≤ 20 nM
CC[C@H](C)[C@@H]1NC(=O)[C@H](CC(C)C)N(C)C(=O)C[C@@H](C(=O)N2CCCCC2)N(C)C(=O)[C@H](C2CCCCC2)N(C)C(=O)C2(CCCC2)NC(=O)[C@@H]2CCCN2C(=O)[C@H](CCc2ccc(C(F)(F)F)c(Cl)c2)NC(=O)CN(C)C(=O)[C@H](C2CC2)N(C)C(=O)CN(C)C(=O)CN(C)C1=O [Compound 1666] ([NMeL]I[Sar][Sar][NMeGly(cPr)][Sar][hPhe(3-Cl-4-CF3)]P[Ac5c][NMeChg][NMeD]-Piperidide; lactam N-11)	> 500 nM
CC[C@H](C)[C@@H]1NC(=O)[C@H](C)N(C)C(=O)C[C@@H](C)NC(=O)[C@H](C(C)C)N(C)C(=O)C2(CCCC2)NC(=O)[C@@H]2CCCN2C(=O)[C@H](CCc2ccc(C(F)(F)F)c(Cl)c2)NC(=O)[C@H]2CCCN2C(=O)[C@H](Cc2ccc(F)cc2)N(C)C(=O)[C@@H]2CCCN2C(=O)CN(C)C1=O [Compound 1667] (cyclo([Ac5c][NMeV][d(β3hA)][NMeA]I[Sar]P[NMePhe(4-F)][dP][hPhe(3-Cl-4-CF3)]P))	> 500 nM
CC[C@H](C)[C@@H]1NC(=O)[C@H](CC(C)C)N(C)C(=O)C[C@@H](C(=O)N2CCCCC2)N(C)C(=O)[C@H](C2CCCCC2)N(C)C(=O)C2(CCCC2)NC(=O)[C@@H]2CCCN2C(=O)[C@H](CCc2ccc(C(F)(F)F)c(Cl)c2)NC(=O)CN(C)C(=O)[C@H](C)N(C)C(=O)CN(C)C(=O)CN(C)C1=O [Compound 1681] ([NMeL]I[Sar][Sar][NMeA][Sar][hPhe(3-Cl-4-CF3)]P[Ac5c][NMeChg][NMeD]-Piperidide; lactam N-11)	> 500 nM
CC[C@H](C)[C@@H]1NC(=O)[C@H](CC(C)C)N(C)C(=O)C[C@@H](C(=O)N2CCCCC2)N(C)C(=O)[C@H](C2CCCCC2)N(C)C(=O)C2(CCCC2)NC(=O)[C@@H]2CCCN2C(=O)[C@H](CCc2ccc(C(F)(F)F)c(Cl)c2)NC(=O)CN(C)C(=O)[C@H](CO)N(C)C(=O)CN(C)C(=O)CN(C)C1=O [Compound 1687] ([NMeL]I[Sar][Sar][NMeS][Sar][hPhe(3-Cl-4-CF3)]P[Ac5c][NMeChg][NMeD]-Piperidide; lactam N-11)	> 500 nM
